From patent US20170137855A1, “RECOMBINANT CELLS AND METHODS FOR NONPHOSPHORYLATIVE METABOLISM” (REGENTS OF THE UNIVERSITY OF MINNESOTA, priority 2015, published 2017)
“And” between values parts separate entries of the source, which are not always exact repeats. Equal values may be shown once.

Assays:
[1] = target: T1, Burkholderia xenovorans LB400 2-keto-3-deoxy-D-xylonate dehydratase (DR64_8450) (Paraburkholderia xenovorans, UniProt Q13FD1); experiment: B. xenovorans 2-keto-3-deoxy-D-xylonate dehydratase, coupled assay with KGSADH; format: biochemical
T1 construct: coupled with D-xylonate dehydratase and KGSADH
T1 sequence (Q13FD1 1-395): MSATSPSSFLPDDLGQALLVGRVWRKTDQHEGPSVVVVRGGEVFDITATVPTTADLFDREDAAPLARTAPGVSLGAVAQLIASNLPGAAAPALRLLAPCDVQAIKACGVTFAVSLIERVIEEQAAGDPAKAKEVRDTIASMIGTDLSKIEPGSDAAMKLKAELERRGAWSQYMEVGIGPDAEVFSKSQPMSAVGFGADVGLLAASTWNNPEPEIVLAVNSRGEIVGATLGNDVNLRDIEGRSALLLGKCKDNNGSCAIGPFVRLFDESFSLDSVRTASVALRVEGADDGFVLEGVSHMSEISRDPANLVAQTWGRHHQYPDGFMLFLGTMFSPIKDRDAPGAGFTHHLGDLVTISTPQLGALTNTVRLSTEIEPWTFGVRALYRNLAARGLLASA
Procedure: (§1) 2-Keto-3-deoxy-D-xylonate dehydratase (XylX/DR64-8450), 2-keto-3-deoxy-L-arabonate dehydratase (AraD) and 5-keto-4-deoxy-D-glucarate dehydratase (YcbC): Enzyme activities of XylX, DR64-8450, AraD and YcbC were assayed spectrophotometrically in a coupled assay with the corresponding previous dehydratase and 2-ketoglutaric semialdehyde dehydrogenase (KGSADH) as previously described (Watanabe et al., 2006. J Biol. Chem. 281:33521-33536). […] The reaction was initiated by adding an appropriate amount of 2-keto-3-deoxy-D-xylonate dehydratase (XylX/DR64-8450)/2-keto-3-deoxy-L-arabonate dehydratase (AraD)/5-keto-4-deoxy-D-glucarate dehydratase (YcbC), and the increasing absorbance at 340 nm caused by NADH produced in the reaction was monitored.

[2] = target: T2, Caulobacter crescentus 2-keto-3-deoxy-D-xylonate dehydratase (XylX) (Caulobacter vibrioides, UniProt A0A0H3C4T2); experiment: C. crescentus 2-keto-3-deoxy-D-xylonate dehydratase, coupled assay with KGSADH; format: biochemical; conditions: substrate from 0-20 mM D-xylonate, 1 mM NAD+, pH 7.5, 25° C.
T2 construct: coupled with XylD and KGSADH; BlpI site removed in gene
T2 sequence (A0A0H3C4T2 1-384): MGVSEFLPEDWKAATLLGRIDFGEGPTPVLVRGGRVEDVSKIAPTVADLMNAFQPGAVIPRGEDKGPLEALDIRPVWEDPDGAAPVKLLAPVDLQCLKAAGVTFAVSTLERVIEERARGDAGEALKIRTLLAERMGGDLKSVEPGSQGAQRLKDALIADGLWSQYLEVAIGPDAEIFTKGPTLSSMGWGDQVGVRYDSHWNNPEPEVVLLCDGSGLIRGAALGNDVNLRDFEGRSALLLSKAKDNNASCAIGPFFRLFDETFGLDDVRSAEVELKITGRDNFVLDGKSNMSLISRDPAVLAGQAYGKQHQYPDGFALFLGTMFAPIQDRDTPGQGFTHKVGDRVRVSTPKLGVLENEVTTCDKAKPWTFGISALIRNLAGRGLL
Procedure: as §1

[3] = target: T3, Lactococcus lactis 2-ketoacid decarboxylase Kivd, wild type (Lactococcus lactis, UniProt Q684J7); experiment: Kivd activity inferred from absence of BTO accumulation with L-arabinose as substrate; format: cell-based; conditions: indicated by no accumulation of BTO using L-arabinose
T3 construct: also expressed from pBDO-5 in E. coli fermentation (A5)
T3 sequence (Q684J7 1-548): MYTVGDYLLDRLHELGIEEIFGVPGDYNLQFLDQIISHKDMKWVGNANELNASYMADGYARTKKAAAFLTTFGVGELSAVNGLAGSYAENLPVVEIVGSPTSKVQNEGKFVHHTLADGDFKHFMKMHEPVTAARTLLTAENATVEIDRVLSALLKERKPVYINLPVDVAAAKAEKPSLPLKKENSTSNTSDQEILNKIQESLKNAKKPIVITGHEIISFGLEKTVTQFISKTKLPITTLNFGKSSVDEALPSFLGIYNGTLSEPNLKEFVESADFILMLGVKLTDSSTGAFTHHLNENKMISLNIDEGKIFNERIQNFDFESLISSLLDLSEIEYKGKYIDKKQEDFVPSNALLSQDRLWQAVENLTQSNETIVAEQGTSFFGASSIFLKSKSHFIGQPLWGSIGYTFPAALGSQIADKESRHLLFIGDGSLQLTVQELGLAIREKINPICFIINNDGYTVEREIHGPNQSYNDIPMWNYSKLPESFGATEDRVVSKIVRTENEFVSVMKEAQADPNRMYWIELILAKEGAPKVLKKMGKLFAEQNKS
Procedure: 125 ml conical flasks with 0.2 g CaCO3 were autoclaved and dried to perform all small-scale fermentations. […] 200 μl of overnight cultures incubated in 2×YT medium were transferred into the flasks and placed in a shaker at a speed of 250 rpm. After adding 0.1 mM isopropyl-β-D-thiogalactoside (IPTG), the flasks were sealed by parafilm and the fermentation was performed for 48 hours at 30° C. The fermentation products were measured by HPLC.

[4] = target: T4, Bacillus subtilis 5-keto-4-deoxy-D-glucarate dehydratase (YcbC) (Bacillus subtilis, UniProt P42235); experiment: 5-keto-4-deoxy-D-glucarate dehydratase, coupled assay with KGSADH; format: biochemical; conditions: substrate from 0-20 mM D-galactarate, pH 7.5, 25° C.
T4 construct: His; made in house; host or cells: E. coli BL21
Procedure: as §1

[5] = target: T5, Burkholderia xenovorans LB400 D-xylose dehydrogenase (DR64_8447) (Paraburkholderia xenovorans, UniProt Q13FC8); experiment: B. xenovorans D-xylose dehydrogenase, NADH generation at 340 nm; format: biochemical; conditions: D-xylose 0 to 10 mM, 1 mM NAD+
T5 construct: gene from LB400 genomic DNA
T5 sequence (Q13FC8 1-268): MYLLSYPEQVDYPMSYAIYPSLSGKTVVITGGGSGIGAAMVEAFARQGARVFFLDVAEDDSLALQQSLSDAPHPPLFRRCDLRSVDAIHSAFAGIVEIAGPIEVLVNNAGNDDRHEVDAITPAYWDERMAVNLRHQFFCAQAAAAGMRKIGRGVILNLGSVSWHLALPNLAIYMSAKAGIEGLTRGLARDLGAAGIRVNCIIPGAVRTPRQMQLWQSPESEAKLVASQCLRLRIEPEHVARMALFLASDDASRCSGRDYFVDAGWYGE
Procedure: (§2) A series of enzymatic assays were conducted to estimate the initial activity as a function of starting substrate concentration. […] Kinetic constants (kcat/Km) for following enzymes were calculated with the same method.

[6] = target: T6, Caulobacter crescentus D-xylose dehydrogenase (XylB) (Caulobacter vibrioides, UniProt B8H1Z0); experiment: C. crescentus D-xylose dehydrogenase, NADH generation at 340 nm; format: biochemical; conditions: D-xylose 0 to 10 mM, 1 mM NAD+
T6 construct: His; made in house; host or cells: E. coli BL21
T6 sequence (B8H1Z0 1-248): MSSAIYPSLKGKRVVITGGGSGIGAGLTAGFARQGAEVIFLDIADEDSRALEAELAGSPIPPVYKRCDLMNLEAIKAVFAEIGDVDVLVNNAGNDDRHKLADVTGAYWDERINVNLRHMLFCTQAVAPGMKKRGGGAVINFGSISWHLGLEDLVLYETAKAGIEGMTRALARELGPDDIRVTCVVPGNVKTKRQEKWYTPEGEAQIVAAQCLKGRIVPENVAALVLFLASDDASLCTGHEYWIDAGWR
Procedure: as §2

[7] = 100 mM Tris-HCl, 5 mM MgCl2, pH 7.5, 30° C.

T4 sequence (P42235 whole entry): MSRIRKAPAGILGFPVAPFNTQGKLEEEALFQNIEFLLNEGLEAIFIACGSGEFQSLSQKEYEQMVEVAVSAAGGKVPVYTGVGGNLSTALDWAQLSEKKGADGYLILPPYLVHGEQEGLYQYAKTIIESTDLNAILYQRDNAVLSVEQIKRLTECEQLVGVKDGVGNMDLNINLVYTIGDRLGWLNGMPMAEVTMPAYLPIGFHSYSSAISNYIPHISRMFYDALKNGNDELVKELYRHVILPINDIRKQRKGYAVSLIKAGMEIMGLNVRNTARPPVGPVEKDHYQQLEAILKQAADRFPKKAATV

O=C(O)C(=O)C[C@H](O)CO [2-keto-3-deoxy-D-xylonate]
kcat ([1]; coupled assay, substrate from 0-20 mM D-xylonate, 1 mM NAD+, pH 7.5, 25° C.): 4.7 s⁻¹ | kcat compared to XylX of C. crescentus ([1]; higher kcat (4.7 s^−1) vs 0.53 s^−1): 9 fold | kcat [2]: 0.53 s⁻¹ | kcat/Km [2]: 260 M⁻¹ s⁻¹

O=C(O)C(=O)C[C@@H](O)CO [2-keto-3-deoxy-L-arabonate]
Kivd activity on 2-keto-3-deoxy-L-arabonate [3]: not active

O=C(O)C(=O)C[C@H](O)[C@@H](O)C(=O)O [5-keto-4-deoxy-D-glucarate]
specific constant (kcat/Km), compared within D-galacturonate pathway [4]: lowest specific constant

OC1OC[C@@H](O)[C@H](O)[C@H]1O (stereo partly drawn) [D-xylose]
Km [5, 7]: 1970 ± 120 µM | kcat ([5]; pH 7.5, 30° C.): 49.9 ± 4.2 s⁻¹ | Km [6, 7]: 850 ± 80 µM | kcat ([6]; pH 7.5, 30° C.): 12.1 s⁻¹ and 12.1 ± 2.2 s⁻¹
